From patent publication US20230390192A1, “GASTRO RETENTIVE DOSAGE FORMS COMPRISING DEUTETRABENAZINE” (AUSPEX PHARMACEUTICALS, INC., priority 2020, published 2023)

How the values were obtained:
[1] = Deutetrabenazine/deuHTBZ Cmax ratio in humans; format: in vivo
[2] = in vivo; cited from earlier work
Human [14C]-AME study = conditions: humans, dosed as powder in capsule (PIC)
[3] = Drug solubility at different pH
[4] = Rat perfusion model, intestinal permeability/absorption
[5] = Single-dose partial crossover comparative bioavailability study in dogs
Procedure: The trial was conducted as an open-label, randomized, single-dose, partial crossover comparative bioavailability study. The study was designed to determine the AUC0-t, AUC0-24, Cmax and Tmax of deutetrabenazine and total deuterated α- and β-dihydrotetrabenazine (deuHTBZ) metabolites. The sample group consisted of 4 male beagle dogs. Each dog was administered two treatments. […] A washout period of 14 days was kept before crossing over to the next treatment. Each dog was administered a single oral dose with 10 ml water. Prior to each dose administration, the dogs were pretreated with pentagastrin (to stimulate gastric acid secretion.
Blood samples were collected before dosing and at predetermined time points through 24 hours post-dosing. The samples were analyzed for deutetrabenazine and total deuHTBZ in plasma using an LC-MS/MS method.

[6] = Particle size distribution by laser diffractometry (Mastersizer 3000); format: physicochemical; conditions: drug substance, dry measurement
Source text: As used herein, the term “particle size distribution” refers to the statistical distribution of the volume share related of all particle sizes and is represented by D90, D50 or D10 values. The D90 value of the integral volume distribution is defined in the context of this invention as the particle diameter, at which 90 percent by volume of the particles have a smaller diameter than the diameter, which corresponds to the D90 value. For example, a D90 of 15 μm, means that 90% (by volume) of the particles have a diameter less than or equal to 15 μm. A D50 of 10 μm, means that 50% (by volume) of the particles have a diameter less than or equal to 10 μm. A D10 of 3 μm, means that 10% (by volume) of the particles have a diameter less than or equal to 3 μm. Particle size distribution is determined by means of laser diffractometry. More specifically, the particle size distribution is determined using a Mastersizer 3000 from Malvern Instruments.
The deutetrabenazine particle size distributions following manufacture (untreated), milling (quadro co-mill) and micronization (air jet mill) are shown in Table 1.
For dry measurement of the milled and unmilled deutetrabenazine the following settings are preferably used: […]

D10 [6] | D50 [6] | D90 [6] | Compound | deutetrabenazine/deuHTBZ Cmax ratio [1] | half-life of active metabolites relative to tetrabenazine [2] | radioactive dose recovered in urine (Human [14C]-AME study) | solubility ([3]; acidic environment (pH<4)) | solubility ([3]; pH ≥4) | permeability through the small intestinal (SI) segments ([4]; rat perfusion model) | levels of absorption in the lower GI (rank order of segments) ([4]; rats) | ileum absorption ([4]; rats, lower GI) | deutetrabenazine/deuHTBZ Cmax ratio [5]
– | – | – | [2H]C([2H])([2H])Oc1cc2c(cc1OC([2H])([2H])[2H])[C@H]1CC(=O)[C@H](CC(C)C)CN1CC2 [Deutetrabenazine, (RR,SS)-1,3,4,6,7,11b-hexahydro-9,10-di(methoxy-D3)-3-(2-methylpropyl)-2H-benzo[a]quinolizin-2-one] | < 1% | increased | approximately 80% | relatively good solubility | < 2300 µg/mL | permeable | Jejunum<Mid-small intestine<Colon<Ileum | about 0.0006 cm/sec | about 10%
6.11 μm | 33.55 μm | 131.55 μm | [2H]C([2H])([2H])Oc1cc2c(cc1OC([2H])([2H])[2H])C1CC(=O)C(CC(C)C)CN1CC2 (stereo not drawn) [co-milled, deutetrabenazine] | – | – | – | – | – | – | – | – | –
1.08 μm | 3.31 μm | 7.05 μm | [2H]C([2H])([2H])Oc1cc2c(cc1OC([2H])([2H])[2H])C1CC(=O)C(CC(C)C)CN1CC2 (stereo not drawn) [micro-milled, deutetrabenazine] | – | – | – | – | – | – | – | – | –
9.08 μm | 59.66 μm | 213.07 μm | [2H]C([2H])([2H])Oc1cc2c(cc1OC([2H])([2H])[2H])C1CC(=O)C(CC(C)C)CN1CC2 (stereo not drawn) [unmilled, deutetrabenazine] | – | – | – | – | – | – | – | – | –
